From patent US8383595B2, “Peptide derivative and composition for promoting tear secretion comprising the same” (Kinki University, priority 2008, dated 2013)
Where no end group is shown, it is not given here.

Tests used:
rat lacrimal secretion [1] = experiment: Rat lacrimal fluid secretion in vivo (Schirmer test paper); details: male Wistar rat; for lacrimal secretion promoting action compared with Ser-Leu-Ile-Gly-Arg-Leu-NH2 and Ile-Gly-Arg-Leu-NH2: six minutes after administration (FIGS. 2, 4); for lacrimal secretion promoting action: peptide 5 μmol/kg i.v. one minute after amastatin 2.5 μmol/kg i.v., six minutes after administration (FIGS. 1, 3)
Protocol: An amount of lacrimal secretion which is an indication for determining an effect of promoting lacrimal secretion can be measured according to a known method such as by Iga et al. (Iga, Y. et al., Jpn. J. Pharmacol., 78, 373-80, 1998) using a rat. In particular, a rat is anesthetized with pentobarbital (50 mg/kg, intra-abdominal administration), and a paper with 2 mm width for testing the human lacrimal secretion function, the Schirmer test paper (Showa Yakuhin Kako Co., Ltd.) is inserted into a lower eyelid of the rat. After a fixed period of time has passed, the test paper is removed, and a length of the wetted portion of the test paper is measured using a caliper square. If a statistically significant increase of lacrimal secretion is observed when a test substance is administered, it can be said that the substance has the lacrimal secretion promoting action.
Male Wistar rat at 6 weeks of age was used in experiments. Each animal was housed for one week under the environment of room temperature of 23±2° C., a humidity of 50±5% and a 12 hours light/dark cycle (light: 07:00-19:00) and, thereafter, it was subjected to experiments. During the housing and experiment period, the animal was fed a solid chaw and water ad lib.
An amount of rat lacrimal fluid secretion was measured according to the method of Iga et al. (Iga, Y. et al., Jpn. J. Pharmacol., 78, 373-80, 1998). That is, the rat was anesthetized with pentobarbital (50 mg/kg, intraabdominal administration), and a paper with 2 mm width for testing human lacrimal secretion function, the Schirmer test paper (Showa Yakuhin Kako Co., Ltd.) was inserted into a lower eyelid of the rat. After the period of time fixed has passed, the test paper was removed, and a length of a wetted portion of the test paper was measured using a caliper square to define an indicator of lacrimal secretion. An amount of lacrimal fluid was measured at 1, 2, 4 and 6 minutes after administration of the peptides.
In addition, the results are shown in the mean (mm)±standard error, and the test of significance was performed according to a Tukey's multiple comparison test.
A physiological salt solution of amastatin (2.5 μmol/kg), which is an aminopeptidase inhibitor, was intravenously administrated to the rat, and after one minute, a physiological salt solution of various peptide derivatives (5 μmol/kg) was intravenously administrated. Measurements were initiated immediately after administration of the peptides.
As a control, an amount of lacrimal secretion was also measured in the case where the physiological salt solution without the peptide (solvent) was intravenously, administrated.

rat lacrimal secretion [2] = details: earlier finding, no details given; cited from earlier work
PAR-2 = details: as disclosed in JP 2001-181208A; cited from earlier work
[3] = peptide 5 μmol/kg i.v. after amastatin 2.5 μmol/kg i.v.

Row | Compound | lacrimal secretion promoting action (rat lacrimal secretion [1]) | also measured
1 | CC(C)C[C@H](NC(=O)[C@H](CCCNC(=N)N)NC(=O)c1ccco1)C(N)=O [2-furoyl-(L)Arg-(L)Leu-NH2, N-(2-furoyl)-L-Arg-L-Leu-NH2] | potent lacrimal secretion promoting action | duration of the lacrimal secretion promoting action compared with Ser-Leu-Ile-Gly-Arg-Leu-NH2 and Ile-Gly-Arg-Leu-NH2 (rat lacrimal secretion [1]; peptide 5 μmol/kg i.v. after amastatin 2.5 μmol/kg i.v., measured at 1, 2, 4 and 6 minutes (FIG. 5)): maintained over a longer period of time; lacrimal secretion promoting action compared with Ser-Leu-Ile-Gly-Arg-Leu-NH2 and Ile-Gly-Arg-Leu-NH2 (rat lacrimal secretion [1]; [3]): almost the same as those of Ser-Leu-Ile-Gly-Arg-Leu-NH2 and Ile-Gly-Arg-Leu-NH2
2 | D-Arg-D-Leu-NH2 [(D)Arg-(D)Leu-NH2] | did not entirely influence on lacrimal secretion | –
3 | D-Arg-L-Leu-NH2 [(D) Arg-(L)Leu-NH2] | did not entirely influence on lacrimal secretion | –
4 | Ile-Gly-Arg-Leu-NH2 (IGRL-NH2) [Ile-Gly-Arg-Leu-NH7] | – | lacrimal secretion promoting action (previously demonstrated) (rat lacrimal secretion [2]): previously demonstrated to have the lacrimal secretion promoting action
5 | L-Arg-D-Leu-NH2 [(L)Arg-(D)Leu-NH2] | did not entirely influence on lacrimal secretion | –
6 | L-Arg-L-Leu-NH2 [(L)Arg-(L)Leu-NH2] | promote lacrimal secretion | lacrimal secretion promoting action compared with Ser-Leu-Ile-Gly-Arg-Leu-NH2 and Ile-Gly-Arg-Leu-NH2 (rat lacrimal secretion [1]; [3]): lower than those of Ser-Leu-Ile-Gly-Arg-Leu-NH2 and Ile-Gly-Arg-Leu-NH2
7 | Ser-Leu-Ile-Gly-Arg-Leu-NH2 (SLIGRL-NH2) | – | activation of PAR-2 (PAR-2): activates PAR-2; lacrimal secretion promoting action (previously demonstrated) (rat lacrimal secretion [2]): previously demonstrated to have the lacrimal secretion promoting action
8 | cyclo-L-Arg-L-Leu-NH2 [cyclo-Arg-Leu] | did not entirely influence on lacrimal secretion | –
